In patent US11465972B2, “Inhibitors of oxidized low-density lipoprotein receptor 1 and methods of use thereof” (United States Government as represented by the Department …, priority 2015, dated 2022):
“Also recorded” adds a separate entry of the source.

Legend:
[1] = target: human LOX-1 (Homo sapiens, UniProt P78380); test: Thermal shift assay with purified LOX-1 protein; assay type: binding; set-up: It encodes for 147 amino acids for the LOX-1 fragment (residues 136-273); made in house; host or cells: E. coli BL21 (DE3), co-expressed with DsbC; conditions: for thermal shift (in words): differential scanning fluorimetry; for thermal shift of LOX-1 protein: LOX-1 protein 4 μM, ligand 50 μM, shifts in Celsius
Excerpt: FIG. 2A, FIG. 2B and FIG. 2C depict the docking of the 5 lead compounds and the thermal denaturation assay: (FIG. 2A) The figure depicts the docking of the 5 lead compounds in the binding pocket of LOX-1. LOX-1 is shown as a ribbon model with one monomer in magenta and the other in blue. The compounds are shown as stick models in separate colors. (FIG. 2B) Hydrogen bonding interactions of the compounds as they dock to LOX-1. (FIG. 2C) The measured thermal shifts (in Celsius) are depicted for all five molecules. The solutions contained LOX-1 protein at 4 μM concentration. The ligand concentrations were 50 μM.
As the next step, a protein assay was performed to assess the interaction of the lead compounds with LOX-1 protein for an additional confirmation of the binding to LOX1. The extracellular domain of LOX-1 was expressed and the protein was purified. Using the purified protein, a thermal shift assay was performed. The technique involves measuring thermal denaturation temperatures of the protein in the presence and absence of inhibitors. A larger shift in thermal denaturation is indicative of a tight binding of the ligand to the protein.
In short, the thermal shift assay was performed using a real-time PCR detection system with the fluorescent dye sypro orange to monitor protein unfolding. Fluorescence increases upon protein unfolding because sypro orange has higher quantum in lower dielectric medium and low quantum in higher dielectric medium. During the thermal shift assay a protein exposes the hydrophobic region which corresponds to a lower dielectric environment. The thermal shift assay instrument contains accurate temperature control devices and a CCD detector for simultaneous imaging of fluorescence changes in the microplate. The typical reaction volume of a thermal shift assay is 20 μl, which includes the protein solution, the test compound solution, and the sypro orange. The temperature in the real-time PCR machine during the thermal shift assay was ramped 0.5° C./minute till 100° C.
The C-terminal domain of LOX-1 was expressed by using the protocols reported earlier^12. As this domain contains several disulfide bridges, it was co-expressed with DsbC, a Chaperone disulfide isomerase. The genes were custom synthesized by Genscript (Piscataway, N.J.) using gene map described in Park el al^12. It encodes for 147 amino acids for the LOX-1 fragment (residues 136-273) and 236 amino acids for DsbC. The gene was incorporated into a pET15b vectors by Genscript. The vectors were then transformed into Dh5α cells for amplification and BL21 (DE3) E. coli (Novagen) cells for expression. The proteins were expressed by adding 0.4 mM isopropyl β-D-thiogalactoside in E. coli cells grown in LB medium containing kanamycin, tetracycline, and carbenicillin at 23° C., with 250 rpm agitation, for 20 h. The protein was purified using a nickel-nitrilotriacetic acid column (Qiagen, Valencia, Calif.). And then, the protein samples were concentrated to 10 mg/ml.
LOX-1 protein was incubated with fluorescent dye Sypro Orange (Invitrogen/Life Technologies, Grand Island, N.Y.) and the thermal unfolding of the LOX-1 protein was monitored by measuring the fluorescence using Bio-Rad Real Time PCR machine. We measured the melting temperatures in the absence and presence of the inhibitors 4 tM of LOX-1 protein was incubated with Sypro Orange and heated in stepwise increments of 0.5° C. per min from 25-99° C. The wavelength for excitation was set to 490 and emission was set to 575 nm for Sypro Orange. Fluorescence was measured after every minute for each 0.5° C. increase.

[2] = tested on: VCAM-1 protein expression; test: ox-LDL-induced VCAM-1 protein expression in HUVECs (Western blotting); assay type: cell-based, human; conditions: 200 nM, 5 μg/ml ox-LDL
Description: FIG. 4A, FIG. 4B, FIG. 4C, FIG. 4D and FIG. 4E depict the effect of lead molecules on ox-LDL-induced the activation of MAPKs in HUVECs, VCAM-1 expression and monocyte adhesion onto HUVECs. […] (FIG. 4B) Western blot analyses showing phospho-p38MAPK expression in HUVECs following exposure to 200 nM of each compound for 30 min, and subsequently exposed to 5 μg/mL ox-LDL for 6 hours. […] (FIG. 4D) The variation of VCAM-1 mRNA expression levels with different concentrations of the led compounds. The concentrations are indicated on the X-axis and the VCAM-1 mRNA levels are shown on the Y-axis. The plots for all five molecules are shown in separate colors. […] Graphs show data as mean (±SD); n=3 (for Western blot and PCR assays) or n=20 (for monocyte adhesion assay). *P<0.01 vs. control; #P<0.01 or <0.05 vs. ox-LDL group.
It is known that the activation of LOX-1 by ox-LDL in endothelial cells stimulates the expression of leukocyte adhesion molecules^26. In this study, VCAM-1 expression in HUVECs in the presence of 5 μg/ml ox-LDL was measured. […] VCAM-1 mRNA expression in HUVECs exposed to 5 μg/mL ox-LDL for 6 hrs was also measured.
HUVECs were plated into 6-well cell culture plates. When the cells were reached 70% confluence, they were treated with 200 nM of each of 5 molecules for 30 min, and subsequently exposed to […] ox-LDL for 6 h. After washing with PBS for 2 times, the cells were treated with Cell Lysis Buffer (Promega, Madison, Wis.) with protease Inhibitor and phosphatase Inhibitor (Sigma-Aldrich, St. Louis, Mo.). The protein concentrations were measured by Bradford protein assay. Proteins (20 tg) were separated by electrophoresis in 12% precast SDS-PAGE gels, and were transferred onto Nitrocellulose Blotting Membrane (GE Healthcare Life Science, Piscataway, N.J.). The membranes were then incubated with LOX-1, VCAM-1 (Abcam, Cambridge, Mass.), ERK1/2, phospho-ERK1/2, phospho-p38MAPK (Cell Signaling Technology, Inc., Danvers, Mass.), or […] (Santa Cruz Biotechnology, Inc., Dallas, Tex.) primary antibodies (1:1000˜1:2000) in blocking solution at 4° C. overnight. Following wash with TBS-1 for 3 times, the blots were incubated with HRP-conjugated secondary antibodies (1:10000) in blocking solution for 1 hour at room temperature. After 3 washes with PBS, the blots were treated with Western Blotting Luminol Reagents (Santa Cruz Biotechnology) for 3 min and then exposed to Blue Basic Autorad Film (GeneMate, Kaysville, Utah). The protein bands were scanned by a Gel Doc™ XR System (Bio-Rad, Hercules, Calif.), and the density of each band was quantified by Image J software. The relative expression of target proteins was calculated with comparison to […] bands.

Structure (SMILES) | thermal shift (in words) [1] | effect on ox-LDL-induced VCAM-1 protein expression [2] | thermal shift of LOX-1 protein [1] [°] | effect on ox-LDL-induced VCAM-1 protein expression ([2]; listed as MoL-4)
CCOCCCNC(=O)CCN1C(=O)COc2ccccc21 [Mol-1] | did not show measurable shifts | significantly reduced |  | 
CC(C)(C)C(=O)NCCc1nc2ccccc2n1Cc1ccccc1F [Mol-2] | did not show measurable shifts |  |  | 
CCCn1c(CCNC(=O)CCCO)nc2ccccc21 [Mol-4] | significant thermal shift | significantly inhibited | 10 | significantly reduced
Cc1cc(C)n(CC(O)COc2ccccc2)n1 (stereo not shown) [Mol-5, 1-(3,5-dimethyl-1H-pyrazol-1-yl)-3-phenoxypropan-2-ol] | significant thermal shift | significantly reduced; also recorded: significantly inhibited | 4 | 
